Experimental data published in US8461328B2, “Tricyclic heterocyclic compounds, compositions and methods of use thereof” (Genentech, Inc., priority 2010, dated 2013).
pKi: −log10 of the molar value. Read-outs that look alike come from different tables or passages of the source.

Legend:
Type in all cases: biochemical
JAK1 = molecular target: T1, JAK1 (Homo sapiens, UniProt P23458); assay: JAK1 inhibition (Table 4)
T1 construct: made in house; host or cells: SF9 insect cells (baculovirus)

TYK2 = molecular target: T2, TYK2 (Homo sapiens, UniProt P29597); assay: TYK2 inhibition (Table 4)
T2 construct: made in house; host or cells: SF9 insect cells (baculovirus)
T2 sequence (P29597 873-1187): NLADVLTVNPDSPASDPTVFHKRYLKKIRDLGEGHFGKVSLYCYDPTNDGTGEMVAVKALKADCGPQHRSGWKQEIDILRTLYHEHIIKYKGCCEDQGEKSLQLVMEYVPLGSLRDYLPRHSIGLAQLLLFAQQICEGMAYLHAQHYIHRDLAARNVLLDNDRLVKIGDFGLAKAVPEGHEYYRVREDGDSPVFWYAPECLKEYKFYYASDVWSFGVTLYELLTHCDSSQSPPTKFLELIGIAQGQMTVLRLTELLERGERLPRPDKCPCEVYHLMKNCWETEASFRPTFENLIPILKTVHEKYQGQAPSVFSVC

JAK2 = molecular target: T3, JAK2 (Homo sapiens, UniProt O60674); assay: JAK2 inhibition (Table 4); conditions: read-out: JAK2 Ki
T3 construct: made in house; host or cells: SF9 insect cells (baculovirus)
T3 sequence (O60674 812-1132): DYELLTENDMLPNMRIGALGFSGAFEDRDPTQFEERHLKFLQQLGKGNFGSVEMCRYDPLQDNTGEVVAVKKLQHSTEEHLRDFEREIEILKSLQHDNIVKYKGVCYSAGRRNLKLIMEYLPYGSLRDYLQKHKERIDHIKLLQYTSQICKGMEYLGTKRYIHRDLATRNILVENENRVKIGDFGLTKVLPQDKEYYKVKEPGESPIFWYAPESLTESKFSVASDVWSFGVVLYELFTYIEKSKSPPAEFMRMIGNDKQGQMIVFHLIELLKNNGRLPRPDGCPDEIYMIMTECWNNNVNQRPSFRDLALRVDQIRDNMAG

JAK3 = molecular target: T4, JAK3 (Homo sapiens, UniProt P52333); assay: JAK3 inhibition (Table 4); conditions: read-out: JAK3 Ki
T4 construct: made in house; host or cells: SF9 insect cells (baculovirus)
T4 sequence (P52333 783-1124): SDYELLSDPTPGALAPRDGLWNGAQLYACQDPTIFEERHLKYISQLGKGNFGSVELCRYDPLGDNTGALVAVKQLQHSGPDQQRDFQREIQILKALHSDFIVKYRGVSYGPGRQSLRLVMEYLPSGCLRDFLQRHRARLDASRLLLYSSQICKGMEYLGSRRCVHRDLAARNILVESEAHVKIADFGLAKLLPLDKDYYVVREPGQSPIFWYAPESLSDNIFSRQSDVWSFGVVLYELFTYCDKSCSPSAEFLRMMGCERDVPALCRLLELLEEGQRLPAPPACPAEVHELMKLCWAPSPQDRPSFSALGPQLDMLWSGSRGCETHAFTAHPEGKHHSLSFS

T1 sequence (P23458 852-1154): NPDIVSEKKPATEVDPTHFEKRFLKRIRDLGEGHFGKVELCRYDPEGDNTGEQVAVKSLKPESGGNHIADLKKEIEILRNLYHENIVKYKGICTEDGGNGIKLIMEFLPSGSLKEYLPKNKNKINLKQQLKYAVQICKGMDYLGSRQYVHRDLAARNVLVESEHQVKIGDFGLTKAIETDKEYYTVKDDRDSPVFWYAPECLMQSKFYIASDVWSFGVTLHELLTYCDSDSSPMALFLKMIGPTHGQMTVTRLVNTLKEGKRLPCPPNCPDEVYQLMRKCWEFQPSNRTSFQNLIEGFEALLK

| pKi (JAK1; read-out: JAK1 Ki) | pKi (TYK2) | pKi (JAK2) | pKi (JAK3) | Structure (SMILES) | pKi (JAK1; JAK1 Ki) |
| --- | --- | --- | --- | --- | --- |
| 8.28 | 7.32 | 7.72 | 7.72 | Cc1nc2cnc3[nH]ccc3c2n1[C@H]1CC[C@H](N)CC1 [Example 273, 4-(2-Methyl-6H-1,3,5,6-tetraaza-as-indacen-1-yl)-cyclohexylamine] |  |
| 7.46 | 6.59 | 7.05 | 7.41 | N#CCCN1CCC(n2c(CC(=O)N3CC(F)(F)C3)nc3cnc4[nH]ccc4c32)CC1 [Example 274, 3-(4-{2-[2-(3,3-Difluoro-azetidin-1-yl)-2-oxo-ethyl]-6H-1,3,5,6-tetraaza-as-indacen-1-yl]-piperidin-1-yl}-propionitrile] |  |
| 7.92 | 6.34 | 7.49 | 6.42 | CC(C)(C)OC(=O)N[C@H]1CC[C@H](n2nnc3cnc4[nH]ccc4c32)CC1 [Example 276, [4-(6H-1,2,3,5,6-Pentaaza-as-indacen-1-yl)-cyclohexyl]-carbamic acid tert-butyl ester] |  |
| 8.82 | 7.26 | 8.28 | 8.19 | OCc1nc2cnc3[nH]ccc3c2n1C1CCN(Cc2cccnc2)CC1 [Example 278, [1-(1-Pyridin-3-ylmethyl-piperidin-4-yl)-1,6-dihydro-1,3,5,6-tetraaza-as-indacen-2-yl]-methanol] |  |
| 8.13 | 6.77 | 7.60 | 7.79 | CC(C)c1nc2cnc3[nH]ccc3c2n1C1CCN(CCC#N)CC1 [Example 281, 3-[4-(2-Isopropyl-6H-1,3,5,6-tetraaza-as-indacen-1-yl)-piperidin-1-yl]-propionitrile] |  |
| 8.12 | 6.59 | 7.92 | 7.32 | c1cncc(CN2CCC(n3nnc4cnc5[nH]ccc5c43)CC2)c1 [Example 282, 1-(1-Pyridin-3-ylmethyl-piperidin4-yl)-1,6-dihydro-1,2,3,5,6-pentaaza-as-indacene] |  |
| 9.08 | 7.30 | 8.71 | 8.58 | Cc1nc2cnc3[nH]ccc3c2n1C1CCN(Cc2cccnc2)CC1 [Example 283, 2-Methyl-1-(1-pyridin-3-ylmethyl-piperidin-4-yl)-1,6-dihydro-1,3,5,6-tetraaza-as-indacene] |  |
| 7.03 | 5.46 | 6.22 | 5.58 | CN1CCC[C@H]1C(=O)N1CCC(n2nnc3cnc4[nH]ccc4c32)CC1 [Example 284, ((S)-1-Methyl-pyrrolidin-2-yl)-[4-(6H-1,2,3,5,6-pentaaza-as-indacen-1-yl)-piperidin-1-yl]-methanone] |  |
| 8.45 | 6.35 | 7.32 | 8.19 | O=C(Cc1nc2cnc3[nH]ccc3c2n1C1CCN(Cc2cccnc2)CC1)N1CCC(F)(F)CC1 [Example 286, 1-(4,4-Difluoro-piperidin-yl)-2-[1-(1-pyridin-3-ylmethyl-piperidin-4-yl)-1,6-dihydro-1,3,5,6-tetraaza-as-indacen-2-yl]-ethanone] |  |
| 8.40 | 6.69 | 8.31 | 8.20 | N#Cc1nc2cnc3[nH]ccc3c2n1C1CCN(Cc2cccnc2)CC1 [Example 290, 1-(1-Pyridin-3-ylmethyl-piperidin-4-yl)-1,6-dihydro-1,3,5,6-tetraaza-as-indacene-2-carbonitrile] |  |
| 8.92 | 7.93 | 8.88 | 7.85 | N#CCCN1CCC(n2c(C#N)nc3cnc4[nH]ccc4c32)CC1 [Example 293, 1-[1-(2-Cyano-ethyl)-piperidin-4-yl]-1,6-dihydro-1,3,5,6-tetraaza-as-indacene-2-carbonitrile] |  |
| 8.98 | 7.55 | 8.69 | 8.01 | FC(F)(F)c1nc(CN2CCC(n3cnc4cnc5[nH]ccc5c43)CC2)cs1 [Example 295, 1-[1-(2-Trifluoromethyl-thiazol-4-ylmethyl)-piperidin-4-yl]-1,6-dihydro-1,3,5,6-tetraaza-as-indacene] |  |
| 8.48 | 7.79 | 8.32 | 7.71 | O=C(CC(F)(F)F)N1CCC[C@@H](n2cnc3cnc4[nH]ccc4c32)C1 [Example 296] |  |

Second part, the molecule before the results:

| Structure (SMILES) | pKi (JAK1; read-out: JAK1 Ki) | pKi (TYK2) | pKi (JAK2) | pKi (JAK3) | pKi (JAK1; JAK1 Ki) |
| --- | --- | --- | --- | --- | --- |
| O=C(Cc1nc2cnc3[nH]ccc3c2n1C1CCN(Cc2ccccc2)CC1)N1CC(F)C1 [Example 258, 2-[1-(1-Benzyl-piperidin-4-yl)-1,6-dihydro-1,3,5,6-tetraaza-as-indacen-2-yl)-1-(3-fluoro-azetidin-1-yl)-ethanone] | 7.54 | 5.74 | 6.90 | 7.84 |  |
| O=C(Cc1nc2cnc3[nH]ccc3c2n1C1CCN(Cc2ccccc2)CC1)N1CC(F)(F)C1 [Example 259, 2-[1-(1-Benzyl-piperidin-4-yl)-1,6-dihydro-1,3,5,6-tetraaza-as-indacen-2-yl)-1-(3,3-difluoro-azetidin-1-yl)-ethanone] | 7.56 | 5.73 | 7.02 | 7.93 |  |
| NC(=O)Cc1nc2cnc3[nH]ccc3c2n1C1CCNCC1 [Example 260, 2-(1-Piperidin-4-yl-1,6-dihydro-1,3,5,6-tetraaza-as-indacen-2-yl)-acetamide] | 7.38 | 6.10 | 6.07 | 6.52 |  |
| CC(C)NC(=O)Cc1nc2cnc3[nH]ccc3c2n1C1CCNCC1 [Example 261, N-Isopropyl-2-(1-piperidin-4-yl-1,6-dihydro-1,3,5,6-tetraaza-as-indacen-2-yl)-acetamide] | 7.41 | 6.17 | 6.37 | 6.97 |  |
| O=C(Cc1nc2cnc3[nH]ccc3c2n1C1CCNCC1)N1CCS(=O)(=O)CC1 [Example 262, 1-(1,1-Dioxo-1lambda*6*-thiomorpholin-4-yl)-2-(1-piperidin-4-yl-1,6-dihydro-1,3,5,6-tetraaza-as-indacen-2-yl)-ethanone] | 7.67 | 6.78 | 6.18 | 7.02 |  |
| CN(C(=O)Cc1nc2cnc3[nH]ccc3c2n1C1CCN(CCC#N)CC1)C1CCCC1 [Example 263, 2-{1-[1-(2-Cyano-ethyl)-piperidin-4-yl]-1,6-dihydro-1,3,5,6-tetraaza-as-indacen-2-yl}-N-cyclopentyl-N-methyl-acetamide] | 7.26 | 6.40 | 6.82 | 7.72 |  |
| N#CCCN1CCC(n2c(CC(N)=O)nc3cnc4[nH]ccc4c32)CC1 [Example 264, 2-{1-[1-(2-Cyano-ethy)-piperidin-4-yl]-1,6-dihydro-1,3,5,6-tetraaza-as-indacen-2-yl}-acetamide] | 8.27 | 7.20 | 7.57 | 7.85 |  |
| O=C(Cc1nc2cnc3[nH]ccc3c2n1C1CCNCC1)NC1CCCC1 [Example 265, N-Cyclopentyl-2-(1-piperidin-4-yl-1,6-dihydro-1,3,5,6-tetraaza-as-indacen-2-yl)-acetamide] | 7.53 | 6.24 | 6.39 | 7.18 |  |
| CC(C)NC(=O)Cc1nc2cnc3[nH]ccc3c2n1C1CCN(CCC#N)CC1 [Example 266, 2-{1-[1-(2-Cyano-ethyl)-piperidin-4-yl]-1,6-dihydro-1,3,5,6-tetraaza-as-indacen-2-yl}-N-isopropyl-acetamide] | 8.28 | 6.92 | 7.76 | 8.10 |  |
| N#CCCN1CCC(n2c(CC(=O)N3CCS(=O)(=O)CC3)nc3cnc4[nH]ccc4c32)CC1 [Example 267, 3-(4-{2-[2-(1,1-Dioxo-1lambda*6*-thiomorpholin-4-yl)-2-oxo-ethyl]-6H-1,3,5,6-tetraaza-as-indacen-1-yl}-piperidin-1-yl)-propionitrile] | 8.12 | 7.20 | 7.25 | 8.15 |  |
| N#CCCN1CCC(n2c(CC(=O)NC3CCCC3)nc3cnc4[nH]ccc4c32)CC1 [Example 268, 2-{1-[1-(2-Cyano-ethyl)-piperidin-4-yl]-1,6-dihydro-1,3,5,6-tetraaza-as-indacen-2-yl}-N-cyclopentyl-acetamide] | 8.30 | 6.92 | 7.79 | 8.12 |  |
| O=C(Cc1nc2cnc3[nH]ccc3c2n1C1CCNCC1)N1CC(F)(F)C1 [Example 269, 1-(3,3-Difluoro-azetidin-1-yl)-2-(1-piperidin-4-yl-1,6-dihydro-1,3,5,6-tetraaza-as-indacen-2-yl)-ethanone] | 7.07 | 5.77 | 5.88 | 6.61 |  |
| N#CCCN1CCC(n2c(CC(=O)N3CCCC3)nc3cnc4[nH]ccc4c32)CC1 [Example 270, 3-{4-[2-(2-Oxo-2-pyrrolidin-1-yl-ethyl)-6H-1,3,5,6-tetraaza-as-indacen-1-yl]-piperidin-1-yl}-propionitrile] | 7.44 | 6.45 | 6.92 | 7.82 |  |
| Cc1nc2cnc3[nH]ccc3c2n1[C@@H]1C[C@H]2CC[C@@H](C1)N2Cc1ccccc1 [Example 271, 1-(8-Benzyl-8-aza-bicyclo[3.2.1]oct-3-yl)-2-methyl-1,6-dihydro-1,3,5,6-tetraaza-as-indacene] | 7.76 | 6.52 | 7.90 | 7.22 |  |
| Cc1nc2cnc3[nH]ccc3c2n1[C@@H]1CCCN(C(=O)CC#N)C1 [Example 272] | 9.30 | 8.33 | 8.87 | 8.50 |  |
| FC(F)(F)c1nc2cnc3[nH]ccc3c2n1[C@@H]1CCCN(Cc2ccccc2)C1 [Example 287] |  | 5.69 | 6.84 | 6.09 | 6.55 |
